{
  "source": "patent US20250257054A1",
  "about": "“SALT FORMS OF A 4H-PYRAN-4-ONE STRUCTURED CYP11 A1 INHIBITOR” (ORION CORPORATION, priority 2021, published 2025)",
  "type_in_all_cases": "physicochemical",
  "key": {"[1]": {"test": "Slurry stability of crystalline forms of p-toluenesulfonic acid salt in different water activity conditions (XRPD)", "conditions": "slurry experiments, 5-40° C., 2-3 weeks; values stated as 'about'; listed as Crystalline form 2 of p-toluenesulfonic acid salt", "experimental": "(§1) XRPD measurements were performed with the X-ray powder diffractometer Bruker D8 Advance at room temperature, using a copper filled X-ray tube (40 kV×40 mA) as the X-ray source, CuKα (λ=1.5418 Å), a 0.6 mm divergence slit, 2.5° Soller slits on both the primary and secondary beams and the 1-dimensional LynxEye detector (with aperture angle of 2.91593°). Data collection was done in the range of 3.8-33° 2θ with 0.02° increments, at a scan speed of 0.3°/s.\nStability of the crystalline forms of p-toluenesulfonic acid salt in different water activity conditions was studied in slurry experiments where crystalline form 3 was stirred for 2-3 weeks at 5° C., 25° C. and 40° C. in mixtures of ethanol:water, acetonitrile (ACN):water, methanol: water and methanol alone. 0.5 ml of solvent was added to 25 mg of each sample. The resulting crystalline form was determined by XRPD."}, "[2]": {"test": "Short-term physical stability of salts at 40° C./75% RH for 2 weeks (XRPD)", "conditions": "determined by XRPD", "experimental": "as §1\nShort-term physical stability of various salts was studied by exposure at 40° C./75% RH for 2 weeks followed by measurement by XRPD."}, "[3]": {"test": "Crystalline transformation of form 2 on drying", "conditions": "higher drying temperatures (than about 20-60° C., under reduced pressure)", "experimental": "In a preferred method, crystalline form 2 is prepared in high polymorphic purity and in consistent manner by first dissolving compound (I) in a mixture of acetonitrile and water, where the amount of water is from about 5% to about 15%, preferably from 6% to 12%, per volume of the mixture. The amount of compound (I) is suitably from about 5 g to about 15 g, preferably from about 9 g to 13 g, for example, about 11 g, per 100 ml of the solvent. If desired, activated carbon, celite and/or triamine metal scavenger may also be added. The mixture may be heated, for example, to a temperature of about 50-80° C., more specifically to about 70-80° C. The mixture can be thereafter filtered. To the filtrate is then added p-toluenesulfonic acid monohydrate, for example, in about equivalent molar amount, under heating at a temperature of about 50-80° C., more specifically at about 70° C. The mixture may then be cooled to about 60° C. and seeded, if desired. The mixture can then be stirred in this temperature for about 1 h, followed by cooling, for example to about 0-20° C., more specifically to about 5° C., to precipitate the product. The crystalline form 2 can be washed, for example, with water, and dried at about 20-60° C., preferably at about 25-35° C., for example at about 30° C., under reduced pressure. […]"}},
  "note": "Counter-ions that a name gives are not always drawn.",
  "data": [
    {"smiles": "CS(=O)(=O)N1CCC(COc2coc(CN3Cc4ccc(C(F)(F)F)cc4C3)cc2=O)CC1", "note": "[p-Toluenesulfonic acid salt (form 2), 5-((1-(methylsulfonyl)-piperidin-4-yl)methoxy)-2-((5-(trifluoromethyl)isoindolin-2-yl)methyl)-4H-pyran-4-one]", "values": [
      {"measurement": "Water activity in which the crystalline form is favoured", "setting": "[1]", "result": "higher than 0.5"},
      {"measurement": "Form after 2 weeks", "setting": "[2]", "result": "No change"},
      {"measurement": "Crystalline transformation on drying", "setting": "[3]", "result": "some transformation of crystalline form 2 into crystalline form 1"}
    ]}
  ]
}
